Experiments:
human VPAC1 receptor = target: T1, human VPAC1 receptor (Homo sapiens, UniProt P32241); assay: cAMP stimulation in CHO cells expressing VPAC1; format: cell-based
T1 construct: expressed in transfected cells; host or cells: CHO cells (G418 selection)
T1 sequence (P32241 31-457): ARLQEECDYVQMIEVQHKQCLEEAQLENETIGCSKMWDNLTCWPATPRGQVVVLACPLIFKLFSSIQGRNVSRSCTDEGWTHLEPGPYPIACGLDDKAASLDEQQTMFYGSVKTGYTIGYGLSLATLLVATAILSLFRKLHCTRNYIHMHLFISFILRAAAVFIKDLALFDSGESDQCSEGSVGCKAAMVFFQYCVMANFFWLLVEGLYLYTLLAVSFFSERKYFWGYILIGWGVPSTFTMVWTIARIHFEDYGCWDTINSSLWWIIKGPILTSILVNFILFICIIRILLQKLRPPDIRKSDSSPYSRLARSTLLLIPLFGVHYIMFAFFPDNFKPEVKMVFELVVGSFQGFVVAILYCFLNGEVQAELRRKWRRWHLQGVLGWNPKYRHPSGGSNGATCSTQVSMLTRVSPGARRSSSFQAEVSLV

[1] = test system: Sprague Dawley rats, 6-OHDA lesion; assay: Amphetamine-induced rotations, moderate 6-OHDA hemi-parkinsonian rat model (study 2); format: in vivo; conditions: more severe (40%) lesion, three injections 15 mg/kg i.p., vs vehicle
Method: Rats were treated with 2LS98Lac or saline (vehicle) as outlined in the Schemes in Figures 9A,B via intraperitoneal (i.p.) injection (15 mg/kg). All animals were made hemi-parkinsonian with unilateral, striatal 6-hydroxydopamine (Sigma Aldrich, St. Louis, MO) injections. After surgery, behavioral assessments were done at 2- and 4-weeks post-surgery. 24 h after the last test animals were either euthanized and whole brains were harvested for future biochemical analysis or perfused and brains collected for immunohistochemistry and stereological assessment of tyrosine hydroxylase-positive (TH+) cells remaining in the SNc. In study 1: n = 16 each group were included, and all underwent the behavioral analysis: n = 16, and for the stereology in the SNc, n = 8 each group was used. […]
In order to pharmacologically assess the degree of dopaminergic (DA) depletion in the lesioned side, animals were given amphetamine, an indirectly acting DA agonist and placed into a plexiglass cylinder (38 cm tall × 38 cm across) enclosed in an open field box ([Yue et al., 2011]). Dextro-amphetamine in sterile 0.9% saline (Sigma-Aldrich) was injected i.p. at 5 mg/kg, and rotations were recorded from above using Logitech HD web cameras connected to an Acer Aspire SWS-015 computer. An observer blinded to the groups counted rotations in both the ipsilateral and contralateral rotations for the entire 70 min period. […]

[2] = test system: Sprague Dawley rats, 6-OHDA lesion; assay: Striatal TH expression, semi-quantitative western analysis (study 2); format: in vivo, rat; conditions: more severe (40%) lesion, vs vehicle
Method: Rats were treated with 2LS98Lac or saline (vehicle) as outlined in the Schemes in Figures 9A,B via intraperitoneal (i.p.) injection (15 mg/kg). All animals were made hemi-parkinsonian with unilateral, striatal 6-hydroxydopamine (Sigma Aldrich, St. Louis, MO) injections. After surgery, behavioral assessments were done at 2- and 4-weeks post-surgery. 24 h after the last test animals were either euthanized and whole brains were harvested for future biochemical analysis or perfused and brains collected for immunohistochemistry and stereological assessment of tyrosine hydroxylase-positive (TH+) cells remaining in the SNc. In study 1: n = 16 each group were included, and all underwent the behavioral analysis: n = 16, and for the stereology in the SNc, n = 8 each group was used. In study 2: n = 23 each group were included. […] In the 2LS98Lac group, one video at 4 weeks was lost, reducing n = 22 in this specific analysis, and for the stereology, 2 brains were damaged during processing and could not be included in the stereology of the SNc, therefore […]. For biochemical subanalyses, n = 8 each group. For the microglial morphology subanalysis n = 7 each group.
FIGURE 9 | Evaluation of neuroprotection of the PACAP glycopeptide 2LS98Lac in rat Parkinson’s disease models. (A) Scheme for study 1, using a mild PD lesion. (B) Scheme for study 2, using a moderate PD lesion. […]

`[2H]C([2H])([2H])C([2H])(C([2H])([2H])[2H])[C@]([2H])(NC(=O)[C@H](C)NC(=O)[C@H](C)NC(=O)[C@H](CC(C)C)NC(=O)[C@H](Cc1ccc(O)cc1)NC(=O)[C@H](CCCCN)NC(=O)[C@H](CCCCN)NC(=O)[C@@]([2H])(NC(=O)[C@H](C)NC(=O)[C@H](CC(C)C)NC(=O)[C@H](CCC(N)=O)NC(=O)[C@H](CCCCN)NC(=O)[C@H](CCCNC(=N)N)NC(=O)[C@H](Cc1ccc(O)cc1)NC(=O)[C@H](CCCNC(=N)N)NC(=O)[C@H](CO)NC(=O)[C@H](Cc1ccc(O)cc1)NC(=O)[C@H](CO)NC(=O)[C@H](CC(=O)O)NC(=O)[C@@H](NC(=O)[C@H](Cc1ccccc1)NC(=O)[C@@H](NC(=O)CNC(=O)[C@H](CC(=O)O)NC(=O)[C@H](CO)NC(=O)[C@@H](N)Cc1c[nH]cn1)[C@@H](C)CC)[C@@H](C)O)C([2H])(C([2H])([2H])[2H])C([2H])([2H])[2H])C(=O)N[C@@H](CC(C)C)C(=O)N[C@@H](CO[C@@H]1O[C@H](CO)[C@@H](O[C@@H]2O[C@H](CO)[C@H](O)[C@H](O)[C@H]2O)[C@H](O)[C@H]1O)C(N)=O` [Compound 2LS98Lac] was tested, and the Emax (human VPAC1 receptor; CHO, read-out: VPAC1 Emax) was 101%, the “Receptor selectivity ratio VPAC1/PAC1” value (human VPAC1 receptor; ratio of cAMP EC50 values) was 0.63 and the EC50 (human VPAC1 receptor; read-out: VPAC1 EC50) was 0.45 nM. For the same compound, the “Amphetamine-induced rotations at 2 weeks post-lesion” value [1] was “did not see a difference”, the “Amphetamine-induced rotations at 4 weeks post-lesion” value [1] was “did not see a difference” and the “Striatal TH” value [2] was “no significant difference”.

Source: paper PMC8887546, “Design and Synthesis of Brain Penetrant Glycopeptide Analogues of PACAP With Neuroprotective Potential for Traumatic Brain Injury and Parkinsonism” (Frontiers in drug discovery, 2022)
